Experiments:
[1] = molecular target: T1, human Edg-1 (S1P1) (Homo sapiens, UniProt P21453); assay: S1P1 binding assay: inhibition of [33P]-S1P binding to membrane fraction of HEK-293 cells transferred with the human Edg-1 (S1P1) gene; conditions: for IC50: [33P]-S1P 0.1 nM, human Edg-1 (S1P1) HEK-293 membrane fraction, 1 h at 30° C., read-out: IC50 (concentration at which binding in the absence of the test compound was inhibited by 50%)
T1 construct: expressed in transfected cells; host or cells: HEK-293
How it was run: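 Membranes from S1P1-transfected HEK-293 cells incubated 1 h at 30° C in pH 7.4 Tris buffer with fatty acid-free BSA, 0.1 nM [33P]-S1P and test compound (0.1% DMSO). Filter-bound radioactivity was counted; inhibition corrected for binding to untransfected-cell membranes, and IC50 derived from concentration series.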

[2] = test compound at 10 μM, inhibition of [33P]-S1P binding to the membrane fraction of HEK-293 cells expressing human Edg-1 (S1P1)
[3] = test compound 10 μM, inhibition of [33P]-S1P binding, membrane fraction

T1 sequence (P21453 whole entry): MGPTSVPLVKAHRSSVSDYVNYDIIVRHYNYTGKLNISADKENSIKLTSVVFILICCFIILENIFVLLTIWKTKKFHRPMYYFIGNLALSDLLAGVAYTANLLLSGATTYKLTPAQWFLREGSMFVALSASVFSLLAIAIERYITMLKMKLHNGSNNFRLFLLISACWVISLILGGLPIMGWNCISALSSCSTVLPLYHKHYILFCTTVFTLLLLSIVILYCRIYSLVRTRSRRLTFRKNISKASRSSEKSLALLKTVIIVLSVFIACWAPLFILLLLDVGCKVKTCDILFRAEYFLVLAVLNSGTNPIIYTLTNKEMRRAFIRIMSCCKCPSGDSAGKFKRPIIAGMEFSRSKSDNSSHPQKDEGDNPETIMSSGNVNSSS

| IC50 [1] | inhibition at 10 µM [1, 2] | melting point | Binding assay (membrane) % inhibition (10 μM) ([1]; test compound at 10 μM, inhibition of [33P]-S1P binding to the membrane fraction of HEK-293 cells expressing human Edg-1 (S1P1), 10 µM) | inhibition at 10 µM [1, 3] | SMILES |
| --- | --- | --- | --- | --- | --- |
| ≤ 10 nM | 99.6% | 167.5 to 169 °C |  |  | CCn1c(Oc2ccc(OC)cc2)nnc1[C@@H](C)NS(=O)(=O)c1ccc2c(Cl)cccc2c1 [Compound 138] |
| ≤ 35 nM | 102% | 152 to 156 °C |  |  | CCn1c(Oc2ccc(Cl)c(Cl)c2)nnc1[C@@H](C)NS(=O)(=O)c1ccc(Cl)c(Cl)c1 [Compound 13] |
|  | 83.1% | 192 to 195 °C |  |  | CCn1c(Nc2ccc(F)cc2)nnc1[C@@H](C)NS(=O)(=O)c1ccc(Cl)c(Cl)c1 [Compound 116] |
|  | 99.7% | 123 to 127 °C |  |  | CCn1c(Oc2cc(C(F)(F)F)n(C)n2)nnc1[C@@H](C)NS(=O)(=O)c1ccc(Cl)c(Cl)c1 [Compound 77] |
|  | 101% | 173.5 to 174.5 °C |  |  | CCn1c(Oc2ccc(OC(F)(F)F)cc2)nnc1[C@@H](C)NS(=O)(=O)c1ccc(Cl)c(Cl)c1 [Compound 33] |
| ≤ 35 nM | 100% | 156 to 159 °C |  |  | CCn1c(Oc2ccc(OCCN(C)C)cc2)nnc1[C@@H](C)NS(=O)(=O)c1ccc(Cl)c(Cl)c1 [Compound 35] |
| 7.9 nM | 99.4% | 187 to 188 °C |  |  | CCn1c(Oc2cccc(N3CCN(C)CC3)c2)nnc1[C@@H](C)NS(=O)(=O)c1cc2ccccc2s1 [Compound 144] |
|  | 83.5% | 186 to 188.5 °C |  |  | CCn1c(Oc2ccc(C)cc2)nnc1[C@H](C)NS(=O)(=O)c1ccc(Cl)c(Cl)c1 [Compound 62] |
| 17.5 nM | 102% | 125 to 130 °C |  |  | CCn1c(Oc2ccc(OCCN3CCOCC3)cc2)nnc1[C@@H](C)NS(=O)(=O)c1ccc(Cl)c(Cl)c1 [Compound 36] |
|  | 93.4% | 182 to 184 °C | 100.8% |  | CCn1c(Oc2ccccc2)nnc1[C@@H](Cc1ccccc1)NS(=O)(=O)c1ccc(Cl)c(Cl)c1 [Compound 1] |
|  | 90.7% | 182.5 to 183.5 °C |  |  | CCn1c(Oc2ccc(F)cc2)nnc1[C@@H](C)NS(=O)(=O)c1ccc(C(F)(F)F)cc1 [Compound 128] |
| 2.9 nM | 104% | 121 to 123 °C |  |  | CCn1c(Oc2cccc(N(C)CCN(C)C)c2)nnc1[C@@H](C)NS(=O)(=O)c1ccc(Cl)c(Cl)c1 [Compound 105] |
|  | 100% | 163 to 168 °C |  |  | CCn1c(Oc2ccc(-n3cccc3)cc2)nnc1[C@@H](C)NS(=O)(=O)c1ccc(Cl)c(Cl)c1 [Compound 27] |
|  | 90.7% | 178 to 179 °C |  |  | CCn1c(Oc2ccc3ncccc3c2)nnc1[C@@H](C)NS(=O)(=O)c1ccc(Cl)c(Cl)c1 [Compound 78] |
|  | 87.6% | 164 to 165 °C |  |  | CCn1c(Oc2cc(C)nc(C)c2)nnc1[C@@H](C)NS(=O)(=O)c1ccc(Cl)c(Cl)c1 [Compound 80] |
| ≤ 10 nM | 106% | 155.5 to 156.5 °C |  |  | CCn1c(Oc2cccc(C(C)C)c2)nnc1[C@@H](C)NS(=O)(=O)c1ccc(Cl)c(Cl)c1 [Compound 40] |
| 5.1 nM |  | 227 to 229 °C |  | 98.5% | CCn1c(Oc2cccc(N3CCN(C)CC3)c2)nnc1[C@@H](C)NS(=O)(=O)c1ccc2c(C#N)cccc2c1 [Compound 692] |
|  | 104% | 190 to 195 °C |  |  | CCn1c(Oc2cccc(N3CCCC3)c2)nnc1[C@@H](C)NS(=O)(=O)c1ccc(Cl)c(Cl)c1 [Compound 79] |
| 7.8 nM | 101% | 212 to 214.5 °C |  |  | CCC(NS(=O)(=O)c1ccc(Cl)c(Cl)c1)c1nnc(Oc2ccc(C)cc2)n1CC (stereo not shown) [Compound 149] |
|  | 100% | 212 to 216 °C |  |  | CCn1c(Oc2cc(Cl)cc(Cl)c2)nnc1[C@@H](C)NS(=O)(=O)c1ccc(Cl)c(Cl)c1 [Compound 30] |
|  | 98.9% | 192.5 to 195 °C |  |  | Cc1ccc(Oc2nnc([C@@H](C)NS(=O)(=O)c3ccc(Cl)c(Cl)c3)n2C(C)C)cc1 [Compound 60] |
| ≤ 10 nM | 102% | 110 to 119 °C |  |  | CCn1c(Oc2ccc(OC)cc2)nnc1[C@@H](C)NS(=O)(=O)c1ccc2ccccc2c1 [Compound 140] |
|  | 100% | 203 to 205 °C |  |  | CCn1c(Oc2ccc(N3CCN(C)CC3)cc2)nnc1[C@@H](C)NS(=O)(=O)c1ccc(Cl)c(Cl)c1 [Compound 52] |
| ≤ 10 nM |  | 210 to 217 °C |  | 99.5% | CCn1c(Oc2cccc(N3CCN(C(C)C)CC3)c2)nnc1[C@@H](C)NS(=O)(=O)c1ccc2c(Cl)cccc2c1 [Compound 663] |
| 2.9 nM |  | 189 to 191 °C |  | 106% | CCn1c(Oc2cccc(N3CCN(C)CC3)c2)nnc1[C@@H](C)NS(=O)(=O)c1ccc2c(Cl)ccc(Cl)c2c1 [Compound 694] |
| 12 nM | 102% | 121 to 122 °C |  |  | CCn1c(Oc2cccc(N3CCN(C)CC3)c2)nnc1[C@@H](C)NS(=O)(=O)/C=C/c1ccccc1 [Compound 146] |
|  | 101% | 143 to 146 °C |  |  | CCn1c(Oc2ccc(F)c(Cl)c2)nnc1[C@@H](C)NS(=O)(=O)c1ccc(Cl)c(Cl)c1 [Compound 31] |
|  | 93% | 158 to 159 °C |  |  | CCn1c(Oc2cccc(NC(=O)N(C)C)c2)nnc1[C@@H](C)NS(=O)(=O)c1ccc(Cl)c(Cl)c1 [Compound 97, 3,4-Dichloro-N-((R)-1-[5-[3-(3,3-dimethylureido)-phenoxy]-4-ethyl-4H-[1,2,4]triazol-3-yl]-ethyl)-benzenesulfonamide] |
| ≤ 35 nM | 104% | 147 to 148 °C |  |  | CCCCc1ccc(Oc2nnc([C@@H](C)NS(=O)(=O)c3ccc(Cl)c(Cl)c3)n2CC)cc1 [Compound 32] |
| ≤ 35 nM | 99.2% | 151.5 to 153.5 °C |  |  | CCn1c(Oc2cccc(N3C[C@@H](C)O[C@@H](C)C3)c2)nnc1[C@@H](C)NS(=O)(=O)c1ccc(Cl)c(Cl)c1 [Compound 76] |
